{
  "source": "ChEMBL document CHEMBL1126352",
  "about": "“Novel stereoselective calcium channel ligands of the diphenylalkylamine-type” (Bioorg Med Chem Lett, 1992)",
  "data": [
    {"target": "Voltage-gated L-type calcium channel (Rattus norvegicus, UniProt P22002+Q02485+P27732)", "assay": "Inhibition of [3H]nitrendipine binding to calcium channel of rat brain membranes.", "assay_type": "cell membranes, Membrane", "units": {"Kd": "M l-1"}, "values": [
      {"molecule": "CC(C)(C)c1ccc(CCCCN2CCC(C(O)(c3ccccc3)c3ccc(Cl)cc3)CC2)cc1", "note": "(racemic)", "Kd": "1.15e-7"},
      {"molecule": "CC(C)(C)c1ccc(CCCCN2CCC(C(O)(c3ccccc3)c3ccc(Cl)cc3)CC2)cc1", "note": "(stereo in doubt)", "Kd": "9.36e-8"},
      {"molecule": "CC(Cc1ccccc1)NCCC(c1ccccc1)c1ccccc1", "note": "(stereo not drawn) [PRENYLAMINE]", "Kd": "2.09e-7"}
    ]}
  ]
}
